From ChEMBL document CHEMBL1201862, “PubChem BioAssay data set” (2004)
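Growth conditions: 96-well plates. Treatment: test compound, 48 hours, 5 concentrations. Analysis: linear interpolation between bracketing concentrations; unreached endpoints set to highest concentration. Abbreviation: GI50, concentration required for 50% inhibition of growth.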 Activity calls are given as the source filed them. No stated cut-off is given here; in the data, active = GI50 up to about 1.1 µM and inactive = higher.

How the values were obtained:
Experiment in all cases: growth of human tumour cells (NCI), 48 h
CAKI-1 = test system: CAKI-1
SF-295 = test system: SF-295
SF-268 = test system: SF-268
UO-31 = test system: UO-31
RXF 393 = test system: RXF 393
SK-MEL-28 = test system: SK-MEL-28
SN12C = test system: SN12C
HCT-15 = test system: HCT-15
COLO 205 = test system: COLO 205
OVCAR-3 = test system: OVCAR-3
K562 = test system: K562
NCI-H522 = test system: NCI-H522
NCI-H23 = test system: NCI-H23
EKVX = test system: EKVX
ACHN = test system: ACHN
LOX IMVI = test system: LOX IMVI
OVCAR-4 = test system: OVCAR-4
SR = test system: SR
HOP-92 = test system: HOP-92

SMILES	GI50 (CAKI-1)	GI50 (SF-295)	GI50 (SF-268)	GI50 (UO-31)	GI50 (RXF 393)	GI50 (SK-MEL-28)	GI50 (SN12C)	GI50 (HCT-15)	GI50 (COLO 205)	GI50 (OVCAR-3)	GI50 (K562)	GI50 (NCI-H522)	GI50 (NCI-H23)	GI50 (EKVX)	GI50 (ACHN)	GI50 (LOX IMVI)	GI50 (OVCAR-4)	GI50 (SR)	GI50 (HOP-92)
CCCCNC(=O)OCC(COc1ccccc1OC)OC(=O)NCCCC (stereo unspecified)	> 100 µM (inactive)	> 100 µM (inactive)	> 100 µM (inactive)	63.8 µM (inactive)	> 100 µM (inactive)	> 100 µM (inactive)	> 100 µM (inactive)	> 100 µM	> 100 µM (inactive)	> 100 µM (inactive)	68.5 µM (inactive)	45.4 µM (inactive)	> 100 µM (inactive)	> 100 µM (inactive)	> 100 µM (inactive)	> 100 µM (inactive)	> 100 µM (inactive)	–	–
COc1ccc(/C=N/C23CC4CC(CC(C4)C2)C3)cc1	> 100 µM (inactive)	> 100 µM (inactive)	> 100 µM (inactive)	> 100 µM (inactive)	> 100 µM (inactive)	> 100 µM (inactive)	> 100 µM (inactive)	> 100 µM	> 10 µM (inactive)	> 100 µM (inactive)	> 100 µM (inactive)	> 100 µM (inactive)	> 100 µM (inactive)	> 100 µM (inactive)	> 100 µM (inactive)	> 100 µM (inactive)	> 100 µM (inactive)	> 100 µM (inactive)	–
CCOC(O)(NC(=O)C(C(F)(F)F)C(F)(F)F)C(F)(F)F (stereo unspecified)	–	–	> 100 µM (inactive)	> 100 µM (inactive)	> 100 µM (inactive)	> 100 µM (inactive)	> 100 µM (inactive)	> 100 µM	> 100 µM (inactive)	–	> 100 µM (inactive)	–	> 100 µM (inactive)	> 100 µM (inactive)	> 100 µM (inactive)	> 100 µM (inactive)	–	> 100 µM (inactive)	–
CS(=O)(=O)NNS(=O)(=O)c1cccc([N+](=O)[O-])c1	> 100 µM (inactive)	> 100 µM (inactive)	–	> 100 µM (inactive)	> 100 µM (inactive)	–	> 100 µM (inactive)	> 100 µM	> 100 µM (inactive)	–	> 100 µM (inactive)	> 100 µM (inactive)	> 100 µM (inactive)	> 100 µM (inactive)	> 100 µM (inactive)	> 100 µM (inactive)	> 100 µM (inactive)	> 100 µM (inactive)	–
COC(OC)c1cccc2c1C(=O)CCC1(O)c3ccccc3C1C2 (stereo unspecified)	–	42.1 µM (inactive)	> 100 µM (inactive)	> 100 µM (inactive)	–	> 100 µM (inactive)	> 100 µM (inactive)	> 100 µM	> 100 µM (inactive)	7.52 µM (inactive)	55.5 µM (inactive)	> 100 µM (inactive)	78.9 µM (inactive)	> 100 µM (inactive)	–	> 100 µM (inactive)	> 100 µM (inactive)	> 100 µM (inactive)	–
C1CCN2CC3CONC3C2C1 (stereo unspecified)	> 100 µM (inactive)	> 100 µM (inactive)	> 100 µM (inactive)	> 100 µM (inactive)	> 100 µM (inactive)	> 100 µM (inactive)	> 100 µM (inactive)	> 100 µM	> 100 µM (inactive)	> 100 µM (inactive)	> 100 µM (inactive)	> 100 µM (inactive)	> 100 µM (inactive)	> 100 µM (inactive)	> 100 µM (inactive)	> 100 µM (inactive)	> 100 µM (inactive)	–	–
CC1CC(=O)C2CC(CO)=CCCC2C1(C)CC/C(=C/CO)CO (stereo unspecified)	> 100 µM (inactive)	> 100 µM (inactive)	–	> 100 µM (inactive)	> 100 µM (inactive)	> 100 µM (inactive)	> 100 µM (inactive)	> 100 µM	> 100 µM (inactive)	> 100 µM (inactive)	> 100 µM (inactive)	87.9 µM (inactive)	> 100 µM (inactive)	> 100 µM (inactive)	> 100 µM (inactive)	> 10 µM (inactive)	–	–	> 100 µM (inactive)
CC1(O)C(C)(O)C(C)(O)C1(C)O (stereo unspecified)	> 100 µM (inactive)	> 100 µM (inactive)	> 100 µM (inactive)	> 100 µM (inactive)	> 100 µM (inactive)	> 100 µM (inactive)	> 100 µM (inactive)	> 100 µM	> 100 µM (inactive)	> 100 µM (inactive)	> 100 µM (inactive)	> 100 µM (inactive)	> 100 µM (inactive)	> 100 µM (inactive)	> 100 µM (inactive)	> 100 µM (inactive)	> 100 µM (inactive)	–	> 100 µM (inactive)
CCOc1ccc(NC(=O)/C(=C\c2ccc(C)cc2)C(C)=O)cc1	> 100 µM (inactive)	> 100 µM (inactive)	> 100 µM (inactive)	> 100 µM (inactive)	–	> 100 µM (inactive)	> 100 µM (inactive)	> 100 µM	> 100 µM (inactive)	> 100 µM (inactive)	> 100 µM (inactive)	> 100 µM (inactive)	> 100 µM (inactive)	> 100 µM (inactive)	> 100 µM (inactive)	> 100 µM (inactive)	> 100 µM (inactive)	< 0.01 µM (active)	> 100 µM (inactive)
BrC1=CCC23CC=C(Br)[C@H]4CC2(COC3)C[C@@H]1O4 (stereo partly specified)	–	> 100 µM (inactive)	16.9 µM (inactive)	28.2 µM (inactive)	32 µM (inactive)	22.6 µM (inactive)	52 µM (inactive)	47.9 µM	> 100 µM (inactive)	63.5 µM (inactive)	27.5 µM (inactive)	24.3 µM (inactive)	37.2 µM (inactive)	> 100 µM (inactive)	> 100 µM (inactive)	71.6 µM (inactive)	27 µM (inactive)	23.4 µM (inactive)	–
CC(=O)OC1COC(n2c(=S)n(-c3ccccc3)c(=O)c3cc(Br)ccc32)C(OC(C)=O)C1OC(C)=O (stereo unspecified)	42 µM (inactive)	27.5 µM (inactive)	29.1 µM (inactive)	> 100 µM (inactive)	22.2 µM (inactive)	37.8 µM (inactive)	71.1 µM (inactive)	> 100 µM	> 100 µM (inactive)	73.3 µM (inactive)	> 100 µM (inactive)	45.8 µM (inactive)	43.7 µM (inactive)	> 100 µM (inactive)	> 100 µM (inactive)	57.1 µM (inactive)	7.5 µM (inactive)	–	19.5 µM (inactive)
O=C(c1ccccc1)c1c(CC(O)c2ccccn2)n(C(=O)c2ccccc2)c2ccccc12 (stereo unspecified)	36.6 µM (inactive)	20.2 µM (inactive)	28.3 µM (inactive)	22.1 µM (inactive)	–	20.4 µM (inactive)	–	23.4 µM	23.1 µM (inactive)	17.5 µM (inactive)	27.9 µM (inactive)	20.3 µM (inactive)	22.1 µM (inactive)	–	26.7 µM (inactive)	–	21.8 µM (inactive)	15.1 µM (inactive)	18.9 µM (inactive)
COc1ccc2c(C3(O)CCNCC3)c[nH]c2c1	> 100 µM (inactive)	> 100 µM (inactive)	> 100 µM (inactive)	> 100 µM (inactive)	> 100 µM (inactive)	> 100 µM (inactive)	> 100 µM (inactive)	> 100 µM	> 100 µM (inactive)	> 100 µM (inactive)	> 100 µM (inactive)	> 100 µM (inactive)	> 100 µM (inactive)	> 100 µM (inactive)	> 100 µM (inactive)	> 100 µM (inactive)	> 100 µM (inactive)	–	> 100 µM (inactive)
CC1C=C(OC(=O)c2ccccc2)C(=O)C(n2cc(F)c(=O)n(C(=O)c3ccccc3)c2=O)O1 (stereo unspecified)	32.4 µM (inactive)	78 µM (inactive)	–	93.3 µM (inactive)	33.3 µM (inactive)	46.8 µM (inactive)	53.1 µM (inactive)	32.5 µM	26.9 µM (inactive)	22.9 µM (inactive)	25.4 µM (inactive)	–	43 µM (inactive)	> 100 µM (inactive)	50.5 µM (inactive)	23.1 µM (inactive)	52.2 µM (inactive)	–	35.6 µM (inactive)
Cn1cc(-c2ccc3c4ccccc4n(C)c3c2)c2ccccc21	> 100 µM (inactive)	94.4 µM (inactive)	> 100 µM (inactive)	> 100 µM (inactive)	> 100 µM (inactive)	> 100 µM (inactive)	> 100 µM (inactive)	36.6 µM	> 100 µM (inactive)	> 100 µM (inactive)	67.9 µM (inactive)	> 100 µM (inactive)	> 100 µM (inactive)	> 100 µM (inactive)	> 100 µM (inactive)	> 100 µM (inactive)	> 100 µM (inactive)	–	–
NC(CCc1ncc(C(=O)O)s1)C(=O)O (stereo unspecified)	> 100 µM (inactive)	> 100 µM (inactive)	–	> 100 µM (inactive)	> 100 µM (inactive)	> 100 µM (inactive)	> 100 µM (inactive)	> 100 µM	> 100 µM (inactive)	> 100 µM (inactive)	> 100 µM (inactive)	> 100 µM (inactive)	> 100 µM (inactive)	> 100 µM (inactive)	> 100 µM (inactive)	> 100 µM (inactive)	–	–	> 100 µM (inactive)
Cc1cccc(NC(=O)/C=C/c2ccc(N(CCC#N)CCC#N)cc2C)c1	> 100 µM (inactive)	> 100 µM (inactive)	81.5 µM (inactive)	24.5 µM (inactive)	–	> 100 µM (inactive)	> 100 µM (inactive)	29 µM	> 100 µM (inactive)	> 100 µM (inactive)	16.8 µM (inactive)	> 100 µM (inactive)	> 100 µM (inactive)	> 100 µM (inactive)	70.3 µM (inactive)	43.7 µM (inactive)	> 100 µM (inactive)	–	> 100 µM (inactive)
